This is an account of results in patent US8003369B2, “Bacteriolytic agent” (priority 2005, dated 2011).

The conditions of series [1]: cited from earlier work; for pKa (pKa1, first stage dissociation constant): 25° C.
For series [2], the system named is Escherichia coli (E-coli) cell. Description: Bacteriolytic power (number of bacterial cells after 3 days vs blank). The format is cell-based. Conditions: 50 μl of agent diluted to 50% as surfactant in 0.5 ml E. coli cell solution, 20° C. Here is the method:
Into a 2 ml-screw tube were added 0.5 ml of a solution of an Escherichia coli (E-coli) cell and 50 μl of a bacteriolytic agent aqueous diluted solution which had been diluted so as to be a concentration of 50% as a surfactant with a micropipette, and the mixture was mixed well. The mixture was stored by allowing to stand at 20° C. for 3 days, which was used as a sample, and the number of bacterium cells was measured with a super deep profile measurement microscope (manufactured by KEYENCE CORPORATION, VK-8500). Bacteriolytic power was calculated by a following equation.
As a blank, 50 μl of ion-exchanged water was used in place of a bacteriolytic agent aqueous diluted solution. Bacteriolytic power (%)=[1−(the number of bacterial cells in sample after 3 days/the number of bacterial cells of blank)]×100 Determination Criteria: […]

Turning to `N[C@@H](CCC(=O)O)C(=O)O` [glutamic acid], in series [1], the “pKa (pKa1, first stage dissociation constant)” value is recorded as 2.3. As for `O=C(O)CCCCC(=O)O` [adipic acid], the pKa2 in series [1] (second stage dissociation) is listed as 5.3.

With “cyclopentanetetracarboxylic acid salt of distearyldimethylammonium [Example 5]”, the “Bacteriolytic power (score)” value in series [2] is given as 4 (60% ≦ Bacteriolytic power < 80%). As to `CC(=O)[O-].CCCCCCCCCC[N+](C)(C)CCCCCCCCCC` [Example 4, acetate salt of didecyldimethylammonium], the “Bacteriolytic power (score)” value in series [2] is reported as 5 (Bacteriolytic power ≧ 80%). The same measure, in the same setting: the figure for “citric acid salt of didecyldimethylammonium [Example 2]” is 5 (Bacteriolytic power ≧ 80%). `O=C(O)CCCCCCCC(=O)O` [azelaic acid]: the “pKa (pKa1, first stage dissociation constant)” value in series [1] is 4.6.

In the case of `O=C(O)CCCC(=O)O` [glutaric acid], the “pKa (pKa1, first stage dissociation constant)” value in series [1] is reported as 4.3. Take “cyclopentane tetracarboxylic acid salt of didecyldimethylammonium [Example 1]”: in series [2], the “Bacteriolytic power (score)” value is 5 (Bacteriolytic power ≧ 80%). `CCOP(=O)(O)O` [ethylphosphoric acid]: the “pKa (pKa1, first stage dissociation constant)” value in series [1] is 1.6. For the compound `O=C(O)[C@H](O)[C@@H](O)[C@H](O)[C@H](O)CO` [gluconic acid], the “pKa (pKa1, first stage dissociation constant)” value in series [1] was 2.2. On to `COP(=O)(O)O` [methylphosphoric acid], for which the “pKa (pKa1, first stage dissociation constant)” value in series [1] is reported as 1.5.

As to `CCCCCCCCCC[N+](C)(C)CCCCCCCCCC.[Cl-]` [compound 3, didecyldimethylammonium chloride, reference compound], the “Bacteriolytic power (score)” value in series [2] is 4 (60% ≦ Bacteriolytic power < 80%). Take `CCCCCC(=O)O` [caproic acid]: in series [1], the “pKa (pKa1, first stage dissociation constant)” value is listed as 4.9. As for `O=C(O)c1cc(C(=O)O)c(C(=O)O)cc1C(=O)O` [pyromellitic acid], in series [1], the “pKa (pKa1, first stage dissociation constant)” value is reported as 1.9. In the case of “adipate salt of didecyldimethylammonium [Example 3]”, the “Bacteriolytic power (score)” value in series [2] is 5 (Bacteriolytic power ≧ 80%).
